Measured values as given in US6447797B2, “Antibacterial phosphoinositides” (Abbott Laboratories, priority 1998, dated 2002).
Where “and” joins values, the source holds several entries; their conditions need not be identical. Equal entries are not always repeated. Entries after “also recorded” stand apart in the source; their conditions may differ. Marks after values point to notes of the source that are not given here.

Legend:
[1] = tested on: Haemophilus influenzae nontypeable bacterium strain adhering to Detroit 562 human pharynx carcinoma cells (DT 562); assay: Inhibition of adhesion of 111-In radiolabeled Haemophilus influenzae to DT 562 human pharynx cells; format: cell-based; conditions: for Activity in adhesion bioassay (in words): adhesion of H. influenzae to human pharynx cells
Source text: To determine the ability of various phosphoinositides to prevent the adhesion of Haemophilus influenzae to human nasopharynx cells, the following procedure was used. Detroit 562 human pharynx carcinoma cells (DT 562) were obtained from the American Culture Type Collection. A Haemophilus influenzae nontypeable bacterium strain, which was isolated from the middle ear of an infected child, was obtained from Dr. Lauren Bakaletz of The Ohio State University in Columbus, Ohio.
The DT 562 cells were seeded into Costar 96 well plates at a density of 20,000 to 25,000 cells per well and were cultured in Dulbeco's modified Eagle Medium, available from Grand Island Biological Company. The cells were supplemented with 10% fetal bovine serum (FBS), available from Hyclone. The plates were incubated in a humidified atmosphere of 95% air and 5% carbon dioxide at 37° C. Plates containing cells were washed three times with 20 μL of Hanks Balanced Saline Solution (HBSS), available from Sigma Chemical Company of St. Louis, Mo., to remove serum proteins before the addition of bacteria in adhesion assays.
Haemophilus influenzae was streaked onto Chocolate agar plates, available from Becto Dickinson Diagnostic Instrument System of Sparks, Maryland, from frozen aliquots of a low passage number. The plates were then incubated at 37° C. in a humidified atmosphere of 95% air and 5% carbon dioxide for 18 hours to obtain logarithmically growing cultures. Bacteria harvested in phosphate buffered solution (PBS) supplemented with 0.05% bovine serum albumin (BSA), available from Miles Inc. of Kankakee, Ill., were centrifuged and resuspended in a volume of PBS/BSA yielding an optical density of 2.4 at a wavelength of 660 nm. ^111-Indium-oxine (^111-In), a high-energy, short-lived tracer was utilized to radiolabel the bacteria. Fifty μCi of ^111-In solution was added to 2.5 mL of the bacterial suspension and incubated for 20 minutes at 37° C. The radiolabeled bacteria were then washed two times with 10 mL HBSS to remove unbound ^111-In and resuspended in 5 mL HBSS supplemented with 30 mM 2-hydroxyethylpiperazine-N′-2-ethane sulfonic acid buffer, available from Life Technologies, a producer of Gibco BRL Products, of Grand Island, N.Y. Twenty-five μL of the ^111-In labeled bacterial suspension was preincubated with 25 μL of the test chemical in a polypropylene 96 well plate, available from Costar, for 15 minutes at 37° C. to allow binding of the test agent to the Haemophilus influenzae bacterium.
To determine the adhesion quantitation, the following procedure was used. Twenty-five μL of the preincubation mixture containing radiolabeled bacteria and the test chemical were pipetted into each well of the assay plate containing DT 562 cells. The assay plate was incubated for about 15 to about 20 minutes at 37° C. to allow adhesion of the bacteria to the cell monolayer. Nonadherent bacteria were removed by washing the plate three times in HBSS. The assay was terminated by the addition of 100 μL of 0.05 N sodium hydroxide to disrupt the cell monolayer and the adhering of the Haemophilus influenzae bacterium. The contents of each well were then placed in Cobra polypropylene tubes and counted on a Cobra Gamma Counter, available from Packard Bell. After background radiation was subtracted from each well, the average count of four replicates (per sample) was calculated. Results are presented in Table 1 as the percent of inhibition of bacterial adhesion, as compared to bacterial attachment, in control wells containing no test chemical and in which the percent of inhibition is zero.

[2] = tested on: nontypeable Haemophilus influenzae; assay: Neonatal rat model of nasopharyngeal colonisation by nontypeable Haemophilus influenzae; format: in vivo; conditions: for H.I. Recovered Log10 (CFU/mL): intranasal, nasal wash 24 hours after administration, 10 rat pups per group
Procedure: The attachment of Haemophilus influenzae to a mammal's nasopharynx area is believed to be the first stage of a bacterial infection which can lead to otitis media and other disorders and diseases caused by Haemophilus influenzae. A neonatal rat model was used to test the in vivo activity of phosphoinositides, and more specifically PI-3,4-PP, against nontypeable Haemophilus influenzae .
In the test, overnight cultures of nontypeable Haemophilus influenzae were prepared, washed twice and diluted with HBSS to obtain a bacterial suspension of less than 100,000 colony forming units (CFU) per mL. Sample solutions of the PI-3,4-PP were prepared by dissolving in HBSS at 2 mg/mL. The sample solution was mixed with an equal volume (0.5 mL) of the diluted bacterial suspension and incubated for one hour at 37° C. A bacterial control was prepared by mixing and incubating 0.5 mL HBSS with an equal volume of the diluted bacterial suspension. A solvent blank was prepared by incubating 1 mL of HBSS under the same conditions.
In the test, the experimental and control mixtures were used to inoculate 24-hour-old or younger rat pups at 10 μL each intranasally. Twenty-four hours after administration, samples of nasopharyngeal fluid were obtained by the slow instillation of 25 μL of HBSS into the left naris and the initial 10 μL discharge from the right naris was collected for plate count. This procedure insured that the fluid had passed through the nasopharynx. The nasal wash was then spread, or diluted and then spread, onto chocolate agar plates. The plates were incubated at 37° C. overnight and counted for the number of CFU's, an indicator of the number of viable bacteria.

[3] = Test Level 0.1 mg/mL, vs control wells without test chemical, average of four replicates

1-D-myo-inositol-1,2,6-triphosphate sodium salt [I-1,2,6-PPP, reference compound]
% Inhibition of bacterial adhesion [1, 3]: 6* %
Activity in adhesion bioassay (in words) [1]: inactive

1-D-myo-inositol-1,3,4-triphosphate sodium salt [I-1,3,4-PPP, reference compound]
% Inhibition of bacterial adhesion [1, 3]: −1%
Activity in adhesion bioassay (in words) [1]: inactive

O=P([O-])(OCC(O)CO)OC1C(O)C(O)C(O)C(O)C1O.[Li+] [GPI, 1-(a-glycerophosphopoyl)-D-myo-insoitol lithium salt, reference compound]
% Inhibition of bacterial adhesion ([1]; Test Level 0.5 mg/mL): −3%
Activity in adhesion bioassay (in words) [1]: inactive

L-a-phosphatidylinositol ammonium salt [PI, reference compound]
% Inhibition of bacterial adhesion [1, 3]: −2%
Activity in adhesion bioassay (in words) [1]: inactive

L-a-phosphatidylinositol-4-monophosphate sodium salt [PI-4-P]
% Inhibition of bacterial adhesion [1, 3]: 24%
Activity in adhesion bioassay (in words) [1]: lower level of activity

dipalmitoylphosphatidylinositol-3,4-diphosphate ammonium salt [PI-3,4-PP]
% Inhibition of bacterial adhesion ([1]; Test Level 0.006 mg/mL): 31%
% Inhibition of bacterial adhesion ([1]; Test Level 0.013 mg/mL): 33%
% Inhibition of bacterial adhesion ([1]; Test Level 0.025 mg/mL): 58%
% Inhibition of bacterial adhesion ([1]; Test Level 0.050 mg/mL, ammonium salt): 80%
% Inhibition of bacterial adhesion ([1]; Test Level 0.050 mg/mL, listed as PI-3,4-P, ammonium salt): about 80%
% Inhibition of bacterial adhesion ([1]; Test Level 0.1 mg/mL, vs control wells without test chemical, average of four replicates, ammonium salt): 74% and 81%
Lowest concentration at which activity was exhibited ([1]; adhesion inhibition, dose response): 0.006 mg/mL
Activity in adhesion bioassay (in words) [1]: especially active
H.I. Recovered Log10 (CFU/mL) ([2]; Trial 1, inoculum dose 53 CFU/pup, 1 mg/mL PI-3,4-PP): 1.34 ± 0.58 Log10 (CFU/mL)
Reduction in the number of bacteria recovered vs untreated group (HI+HBSS) ([2]; Trial 2, 1 mg/mL PI-3,4-PP, inoculum dose 630-720 CFU/pup): 0.6 log
H.I. Recovered Log10 (CFU/mL) ([2]; Trial 2, inoculum dose 630 CFU/pup, 1 mg/mL PI-3,4-PP): 2.54 ± 1.08 Log10 (CFU/mL)
Mode of in vivo activity (in words) ([2]; neonatal rats, nasopharynx, ammonium salt): not bactericidal; also recorded: inhibits the attachment of nontypeable Haemophilus influenzae to nasopharyngeal cells of neonatal rats

dipalmitoylphosphatidylinositol-3-phosphate ammonium salt [PI-3-P]
% Inhibition of bacterial adhesion [1, 3]: 24%
Activity in adhesion bioassay (in words) [1]: lower level of activity
